From patent US8637512B2, “Formulations and method of treatment” (Glaxo Group Limited, priority 2002, dated 2014)

Key:
[1] = Regional absorption study in the gastrointestinal tract; type: in vivo
Text: Until recently, it was not known where, in the gastrointestinal tract, lamotrigine is absorbed. In carrying out a regional absorption study it has recently been discovered that the extent of absorption of lamotrigine is consistent when the drug is delivered to any point in the gastrointestinal tract between the stomach and the ascending colon. The extent of absorption is also equivalent whether the drug is delivered as a solid or as a solution.

[2] = stomach versus lower regions of the gastrointestinal tract; cited from earlier work
[3] = cited from earlier work

SMILES: Nc1nnc(-c2cccc(Cl)c2Cl)c(N)n1 [Lamotrigine, 3,5-diamino-6-(2,3-dichlorophenyl)-1,2,4-triazine]
- extent of absorption, solid versus solution ([1]; drug delivered as a solid or as a solution): equivalent
- extent of absorption by site of delivery ([1]; drug delivered to any point in the gastrointestinal tract between the stomach and the ascending colon): consistent
- solubility in the stomach compared to lower regions of the gastrointestinal tract [2]: higher
- absorption after oral administration [3]: rapidly and completely absorbed
- absolute bioavailability ([3]; oral administration): about 98%
- effect of food on absolute bioavailability ([3]; oral administration): not affected by food
- first pass metabolism ([3]; oral administration): negligible
